Values of other authors as cited in patent publication US11338055B2, “Wound dressing” (Animal Ethics Pty Ltd, priority 2017, dated 2022).

Settings: typically up to about; depending on the method of administration

CCCCN1CCCCC1C(=O)Nc1c(C)cccc1C (stereo not shown) [bupivacaine]
duration of anaesthesia: 6 to 12 h
